The source of these data is patent publication US10106526B2, “Inhibitors of cyclin-dependent kinase 7 (CDK7)” (SYROS PHARMACEUTICALS, INC., priority 2014, dated 2018).

The target in one assay is T1, CDK7 (Homo sapiens, UniProt P50613).
T1 construct: purchased Life Technologies (Adapta kinase assay service)
Description: CDK7 kinase activity, Adapta kinase assay (Life Technologies). It counts as biochemical. As to conditions: Adapta kinase assay at Life Technologies; 10 μM down to 0.514 nM, 3-fold serial dilutions; read-out: CDK7 Inhibition (IC50). The protocol: Compounds of the invention were assayed for CDK7 activity at Life Technologies™ (Grand Island, N.Y.) using their commercially available Adapta® kinase assay services. Compounds were tested at concentrations ranging from 10 μM down to 0.514 nM in a series of 3-fold serial dilutions. Details of these assays, including substrates used, are available on the Life Technologies web site (http://www.lifetechnologies.com/us/en/home/life-science/drug-discovery/target-and-lead-identification-and-validation/kinasebiology/kinase-activity-assays.html).

The subject of the next assay is Jurkat cells. The assay is described as follows: Inhibition of proliferation of Jurkat cells (CellTiter-Glo, 72 hour). It counts as cell-based, human. As to conditions: 10 μM to 316 pM. As for the experimental part:
Jurkat cells are a cell line established from a human T cell leukemia. Representative compounds of the invention were tested at different concentrations (from 10 μM to 316 pM; 0.5 log serial dilutions) for their ability to inhibit the proliferation of Jurkat cells. Known CDK inhibitors flavopiridol and triptolide were used as positive controls. Cells were grown in RPMI 1640+10% FBS+1% Glutamax. The cells were supplemented with FBS (Life Technologies) and 100 U·mL^− penicillin, 100 μg·mL^− streptomycin (Invitrogen) and cultured at 37° C. in a humidified chamber in the presence of 5% CO2. Proliferation assays were conducted over a 72 hour time period. CellTiter-Glo® (Promega Corporation, Madison, Wis. USA) was used to assess the anti-proliferative effects of the compounds following manufacturer's directions and utilizing the reagents supplied with the CellTiter-Glo® kit. In this table, “A” represents an IC50 of less than 500 nM; “B” an IC50 of between 500 nM and 5 μM; and “C” an IC50 of greater than 5 μM.
In general terms: Cellular ATP, detected with luciferase, serves as a proxy for viable cell number.

Counter-ions that a name gives are not always drawn. Where only a bound is given, the exact number is not on record here.

T1 sequence (P50613 whole entry): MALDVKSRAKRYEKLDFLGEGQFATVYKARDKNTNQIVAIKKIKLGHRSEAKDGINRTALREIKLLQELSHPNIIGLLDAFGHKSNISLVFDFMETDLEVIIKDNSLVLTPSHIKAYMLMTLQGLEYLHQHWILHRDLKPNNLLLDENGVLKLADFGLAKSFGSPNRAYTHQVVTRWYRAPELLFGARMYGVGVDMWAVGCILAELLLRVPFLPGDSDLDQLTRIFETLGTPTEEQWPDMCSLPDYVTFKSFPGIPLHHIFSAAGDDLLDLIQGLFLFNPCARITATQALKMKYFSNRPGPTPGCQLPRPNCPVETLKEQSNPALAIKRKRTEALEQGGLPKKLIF
T1 sequence (P51946 whole entry partner): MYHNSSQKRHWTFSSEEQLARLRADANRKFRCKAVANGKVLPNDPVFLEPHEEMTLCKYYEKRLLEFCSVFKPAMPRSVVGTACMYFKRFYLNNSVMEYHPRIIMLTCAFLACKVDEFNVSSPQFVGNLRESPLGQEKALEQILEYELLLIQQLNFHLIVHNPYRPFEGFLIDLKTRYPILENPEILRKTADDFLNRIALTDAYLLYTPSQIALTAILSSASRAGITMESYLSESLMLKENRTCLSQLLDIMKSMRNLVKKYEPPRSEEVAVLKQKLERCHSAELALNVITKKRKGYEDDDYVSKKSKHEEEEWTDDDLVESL
T1 sequence (P51948 whole entry partner): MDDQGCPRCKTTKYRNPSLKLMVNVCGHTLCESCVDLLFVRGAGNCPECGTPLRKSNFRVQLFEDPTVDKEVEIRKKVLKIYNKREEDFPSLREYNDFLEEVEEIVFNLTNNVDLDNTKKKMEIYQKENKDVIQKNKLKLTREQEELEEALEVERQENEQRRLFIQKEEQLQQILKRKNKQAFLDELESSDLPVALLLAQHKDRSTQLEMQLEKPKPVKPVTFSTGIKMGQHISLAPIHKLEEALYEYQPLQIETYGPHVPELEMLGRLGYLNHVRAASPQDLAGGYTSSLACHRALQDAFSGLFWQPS

One may read the IC50 as the concentration at which inhibition is half-maximal. Take `C=CC(=O)N[C@H]1CCC[C@@H](Nc2ncc(Cl)c(-c3c[nH]c4ccccc34)n2)C1` [Compound 170, N-((1S,3R)-3-(5-chloro-4-(1H-indol-3-yl)pyrimidin-2-ylamino)cyclohexyl)acrylamide]: the values for the 50% inhibitory concentration (IC50) at CDK7 and in the assay with Jurkat cells (Homo sapiens) were under 100 nM and 0.5 to 5 µM, respectively.
For `CN(C)C/C=C/C(=O)N[C@H]1CC[C@@H](C(=O)Nc2cccc(Nc3ncc(Cl)c(-c4c[nH]c5ccccc45)n3)c2)CC1` [Compound 101, (Cis,E)-N-(3-(5-chloro-4-(1H-indol-3-yl)pyrimidin-2-ylamino)phenyl)-4-(4-(dimethylamino)but-2-enamido)cyclohexanecarboxamide], the half-inhibitory concentration (IC50) is under 100 nM at CDK7 and over 5 µM in the assay on Jurkat cells (Homo sapiens).
`CN(C)C/C=C/C(=O)N1CCC(C(=O)Nc2cccc(Nc3ncc(Cl)c(-c4c[nH]c5ccccc45)n3)c2)CC1` [Compound 105, (E)-N-(3-(5-chloro-4-(1H-indol-3-yl)pyrimidin-2-ylamino)phenyl)-1-(4-(dimethylamino)but-2-enoyl)piperidine-4-carboxamide]: the IC50 on CDK7 was under 100 nM; with Jurkat cells (Homo sapiens), 0.5 to 5 µM.
As for `O=C(N[C@@H]1CCC[C@H](Nc2ncc(Cl)c(-c3c[nH]c4ccccc34)n2)C1)C1CCN(C(=O)/C=C/CN2CCOCC2)CC1` [Compound 202-2, N-((1R,3S)-3-((5-chloro-4-(1H-indol-3-yl)pyrimidin-2-yl)amino)cyclohexyl)-1-((E)-4-morpholinobut-2-enoyl)piperidine-4-carboxamide], the half-maximal inhibitory concentration (IC50) at CDK7 is under 100 nM; with Jurkat cells (Homo sapiens), under 0.5 µM.
The corresponding values for `CN(C)C/C=C/C(=O)N1CCC[C@@H](C(=O)Nc2cccc(Nc3ncc(Cl)c(-c4c[nH]c5ccccc45)n3)c2)C1` [Compound 103, (3R,E)-N-(3-(5-chloro-4-(1H-indol-3-yl)pyrimidin-2-ylamino)phenyl)-1-(4-(dimethylamino)but-2-enoyl)piperidine-3-carboxamide] are under 100 nM and 0.5 to 5 µM.
The corresponding values for `N[C@H]1CC[C@H](C(=O)Nc2cccc(Nc3ncc(Cl)c(-c4c[nH]c5ccccc45)n3)c2)CC1` [Compound 1002, trans-4-amino-N-(3-(5-chloro-4-(1H-indol-3-yl)pyrimidin-2-ylamino)phenyl) cyclohexanecarboxamide.HCl] are under 100 nM and 0.5 to 5 µM.
As for `O=C(N[C@H]1CCC[C@@H](Nc2ncc(Cl)c(-c3c[nH]c4ccccc34)n2)C1)C1CCN(C(=O)/C=C/CN2CCOCC2)CC1` [Compound 202-1, N-((1S,3R)-3-((5-chloro-4-(1H-indol-3-yl)pyrimidin-2-yl)amino)cyclohexyl)-1-((E)-4-morpholinobut-2-enoyl)piperidine-4-carboxamide], the 50% inhibitory concentration (IC50) at CDK7 was over 1000 nM; in the assay with Jurkat cells (Homo sapiens), 0.5 to 5 µM.
The corresponding values for `C=CC(=O)N1CCN(C(=O)N[C@H]2CCC[C@@H](Nc3ncc(Cl)c(-c4c[nH]c5ccccc45)n3)C2)CC1` [Compound 201, 4-Acryloyl-N-((1S,3R)-3-(5-chloro-4-(1H-indol-3-yl)pyrimidin-2-ylamino)cyclohexyl)piperazine-1-carboxamide] are under 100 nM and 0.5 to 5 µM.
As to `O=C(Nc1cccc(Nc2ncc(Cl)c(-c3c[nH]c4ccccc34)n2)c1)[C@H]1CCCNC1` [Compound 1005, (3S)—N-(3-(5-chloro-4-(1H-indol-3-yl)pyrimidin-2-ylamino)phenyl)piperidine-3-carboxamide], the half-inhibitory concentration (IC50) on CDK7 was under 100 nM; with Jurkat cells (Homo sapiens), 0.5 to 5 µM.
For `O=C(Nc1cccc(Nc2ncc(Cl)c(-c3c[nH]c4ccccc34)n2)c1)[C@@H]1CCCNC1` [Compound 1004, (3R)—N-(3-(5-chloro-4-(1H-indol-3-yl)pyrimidin-2-ylamino)phenyl)piperidine-3-carboxamide], the IC50 on CDK7 is under 100 nM; in the assay with Jurkat cells (Homo sapiens) it was 0.5 to 5 µM.
In the case of `C=CC(=O)N1CCC(O)(CN(C)[C@H]2CCC[C@@H](Nc3ncc(Cl)c(-c4c[nH]c5ccccc45)n3)C2)CC1` [Compound 225], the half-inhibitory concentration (IC50) on CDK7 is 100 to 1000 nM; with Jurkat cells, over 5 µM.
